One experiment deals with RET (Homo sapiens (Human), UniProt P07949). The experiment in a line: Radioisotope filter binding assay. The class given is biochemical. Particulars: read-out: IC50 Activity Levels Against RTKs (c-Kit, RET, HER4) and AurA, CHK2 Kinases: RET. The procedure, abridged: (§1)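 First, substrate and cofactors are prepared in base buffer (20 mM Hepes pH 7.5, 10 mM MgCl2, 1 mM EGTA). Next, kinase and then compound are added, followed by 20 min at room temperature. Finally, [γ-33P]ATP starts a 2 h reaction, detected by filter binding.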
RET, sequence (P07949 29-1114): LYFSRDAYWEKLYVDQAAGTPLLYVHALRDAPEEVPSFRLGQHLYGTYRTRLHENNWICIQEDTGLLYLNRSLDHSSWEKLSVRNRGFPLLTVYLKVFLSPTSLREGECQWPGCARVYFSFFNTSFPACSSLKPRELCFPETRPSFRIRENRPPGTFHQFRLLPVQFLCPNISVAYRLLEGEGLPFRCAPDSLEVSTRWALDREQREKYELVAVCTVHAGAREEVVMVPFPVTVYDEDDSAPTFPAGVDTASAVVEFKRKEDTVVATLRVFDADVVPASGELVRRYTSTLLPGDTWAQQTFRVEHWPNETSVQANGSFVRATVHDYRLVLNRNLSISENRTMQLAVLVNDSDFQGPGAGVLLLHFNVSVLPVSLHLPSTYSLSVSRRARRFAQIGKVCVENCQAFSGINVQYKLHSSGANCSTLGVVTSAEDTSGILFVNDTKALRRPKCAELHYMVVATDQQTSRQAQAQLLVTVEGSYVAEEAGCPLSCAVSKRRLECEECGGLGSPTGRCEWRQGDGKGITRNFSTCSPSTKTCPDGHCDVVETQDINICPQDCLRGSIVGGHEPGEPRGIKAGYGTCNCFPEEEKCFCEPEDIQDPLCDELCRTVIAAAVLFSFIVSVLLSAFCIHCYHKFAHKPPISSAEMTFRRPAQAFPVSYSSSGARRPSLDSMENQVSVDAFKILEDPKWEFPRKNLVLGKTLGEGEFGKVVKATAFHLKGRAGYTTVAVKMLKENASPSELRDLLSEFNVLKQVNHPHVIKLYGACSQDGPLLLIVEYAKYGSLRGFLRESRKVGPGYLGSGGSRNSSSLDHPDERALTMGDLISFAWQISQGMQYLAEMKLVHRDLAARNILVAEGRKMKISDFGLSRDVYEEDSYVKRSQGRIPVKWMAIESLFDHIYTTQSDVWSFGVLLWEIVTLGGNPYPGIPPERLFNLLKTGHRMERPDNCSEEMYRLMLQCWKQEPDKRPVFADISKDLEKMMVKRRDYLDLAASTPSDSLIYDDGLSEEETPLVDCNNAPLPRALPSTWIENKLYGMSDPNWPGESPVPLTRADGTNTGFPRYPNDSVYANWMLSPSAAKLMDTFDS

Another experiment has as its target BRAF (Homo sapiens (Human), UniProt P15056). The experiment can be described thus: Radioisotope filter binding assay. The class given is biochemical. Particulars: read-out: IC50 Activity Levels Against MAPK Pathway Kinases: BRAF. The procedure, abridged: as §1
In the next experiment the target is c-KIT (Homo sapiens (Human), UniProt P10721). The experiment can be described thus: Radioisotope filter binding assay. The class given is biochemical. Particulars: read-out: IC50 Activity Levels Against RTKs (c-Kit, RET, HER4) and AurA, CHK2 Kinases: c-KIT. Put shortly:
as §1

For a further experiment, the target named is HER4 (Homo sapiens (Human), UniProt Q15303). The experiment in a line: Radioisotope filter binding assay. The class given is biochemical. Particulars: read-out: IC50 Activity Levels Against RTKs (c-Kit, RET, HER4) and AurA, CHK2 Kinases: HER4. The procedure, abridged:
as §1

A further experiment has as its target KDR/VEGFR2 (Homo sapiens (Human), UniProt P35968). The experiment in a line: Radioisotope filter binding assay. The conditions noted are these: read-out: IC50 Activity Levels Against MAPK Pathway Kinases: KDR/VEGFR2. The experiment is classed as biochemical. The procedure, abridged:
as §1

The target in the next experiment is MEK5 (Homo sapiens (Human), UniProt Q13163). The experiment can be described thus: Kinase binding assay CaPBA. The conditions noted are these: read-out: IC50 Activity Levels Against FYN isoforms, YES1 and MEK5: MEK5. The source says: (§2) 4. Kinase Binding Assay CaPBA:
For experiment [1], the target named is T1, FYN (Homo sapiens (Human), UniProt P06241). The experiment can be described thus: Radiometric 33PanQinase assay (FlashPlate-based Protein Kinase Assay). The experiment is classed as biochemical. The conditions noted are these: at app. ATP Km, read-out: IC50 Activity Levels Against FYN Kinase: FYN. The text has this: 5. Radiometric ^33PanQinase^R Assay:
This assay referred to as FlashPlate-based Protein Kinase Assay uses recombinant protein kinase and ATP concentration corresponding to the apparent ATP-Km of the respective kinase. Testing of inhibitors is done at app. ATP Km.

A further experiment addresses FYN isoform (a) (Homo sapiens (Human), UniProt P06241). The experiment in a line: Kinase binding assay CaPBA. The conditions noted are these: read-out: IC50 Activity Levels Against FYN isoforms, YES1 and MEK5: FYN isoform (a).
From the text: as §2

In a further experiment the target is FYN isoform (b) (Homo sapiens (Human), UniProt P06241). The experiment can be described thus: Kinase binding assay CaPBA. Particulars: read-out: IC50 Activity Levels Against FYN isoforms, YES1 and MEK5: FYN isoform (b).
FYN isoform (b), sequence (P06241 other isoform, or with tags, fused parts or gaps): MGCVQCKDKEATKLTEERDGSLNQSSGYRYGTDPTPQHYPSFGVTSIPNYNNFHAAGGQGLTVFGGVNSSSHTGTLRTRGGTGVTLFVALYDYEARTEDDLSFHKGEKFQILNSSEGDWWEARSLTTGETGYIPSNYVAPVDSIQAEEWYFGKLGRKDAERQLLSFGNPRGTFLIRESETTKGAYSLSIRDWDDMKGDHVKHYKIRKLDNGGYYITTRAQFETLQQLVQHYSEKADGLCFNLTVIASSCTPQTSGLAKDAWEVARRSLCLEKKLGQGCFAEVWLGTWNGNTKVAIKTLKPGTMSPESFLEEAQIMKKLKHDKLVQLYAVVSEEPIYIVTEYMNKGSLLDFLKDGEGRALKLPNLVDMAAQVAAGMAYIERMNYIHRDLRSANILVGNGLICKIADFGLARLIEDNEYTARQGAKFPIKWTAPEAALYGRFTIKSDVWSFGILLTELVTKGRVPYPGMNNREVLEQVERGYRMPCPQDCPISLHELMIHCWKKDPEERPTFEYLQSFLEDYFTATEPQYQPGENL
From the text: as §2

The target in a further experiment is HCK (Homo sapiens (Human), UniProt P08631). The experiment in a line: Rabbit reticulocyte lysate assay (KinaseSeeker competition binding). The conditions noted are these: read-out: IC50 Activity Levels Against SRC Family Kinases: HCK.
A further experiment has as its target LCK (Homo sapiens (Human), UniProt P06239). The experiment is described as above. Particulars: read-out: IC50 Activity Levels Against SRC Family Kinases: LCK.
In the next experiment the target is CSK (Homo sapiens (Human), UniProt P41240). The description is as above. The conditions noted are these: at 1 μM.
Experiment [2] concerns the target T1, FYN. The experiment is described as above. Particulars: at 1 μM.
For the next experiment, the target named is BLK (Homo sapiens (Human), UniProt P51451). The experiment is described as above. The conditions noted are these: read-out: IC50 Activity Levels Against SRC Family Kinases: BLK.
The target in a further experiment is SRC (Homo sapiens (Human), UniProt P12931). The experiment is described as above. Particulars: read-out: IC50 Activity Levels Against SRC Family Kinases: SRC.
Another experiment concerns the target LYN (Homo sapiens (Human), UniProt P07948). The description is as above. Particulars: at 1 μM.

The text below walks through data of patent US10844038B2, “1,2-dithiolane compounds useful in neuroprotection, autoimmune and cancer diseases and conditions” (SABILA BIOSCIENCES LLC, priority 2016, dated 2020).

T1 sequence (P06241 whole entry): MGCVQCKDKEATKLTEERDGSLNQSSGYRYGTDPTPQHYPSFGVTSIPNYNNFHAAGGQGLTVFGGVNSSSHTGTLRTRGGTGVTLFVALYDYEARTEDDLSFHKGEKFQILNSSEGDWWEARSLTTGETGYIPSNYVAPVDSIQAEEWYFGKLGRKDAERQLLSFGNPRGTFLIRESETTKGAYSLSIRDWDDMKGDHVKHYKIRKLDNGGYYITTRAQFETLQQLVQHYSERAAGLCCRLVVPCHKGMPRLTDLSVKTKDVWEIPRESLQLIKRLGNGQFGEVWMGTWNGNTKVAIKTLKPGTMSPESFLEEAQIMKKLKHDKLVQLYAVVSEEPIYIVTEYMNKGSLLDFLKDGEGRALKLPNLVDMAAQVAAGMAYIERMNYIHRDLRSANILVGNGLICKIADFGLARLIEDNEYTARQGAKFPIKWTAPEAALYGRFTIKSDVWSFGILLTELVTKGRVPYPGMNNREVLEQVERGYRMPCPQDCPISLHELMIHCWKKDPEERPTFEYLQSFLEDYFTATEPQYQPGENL
KDR/VEGFR2, sequence (P35968 20-1356): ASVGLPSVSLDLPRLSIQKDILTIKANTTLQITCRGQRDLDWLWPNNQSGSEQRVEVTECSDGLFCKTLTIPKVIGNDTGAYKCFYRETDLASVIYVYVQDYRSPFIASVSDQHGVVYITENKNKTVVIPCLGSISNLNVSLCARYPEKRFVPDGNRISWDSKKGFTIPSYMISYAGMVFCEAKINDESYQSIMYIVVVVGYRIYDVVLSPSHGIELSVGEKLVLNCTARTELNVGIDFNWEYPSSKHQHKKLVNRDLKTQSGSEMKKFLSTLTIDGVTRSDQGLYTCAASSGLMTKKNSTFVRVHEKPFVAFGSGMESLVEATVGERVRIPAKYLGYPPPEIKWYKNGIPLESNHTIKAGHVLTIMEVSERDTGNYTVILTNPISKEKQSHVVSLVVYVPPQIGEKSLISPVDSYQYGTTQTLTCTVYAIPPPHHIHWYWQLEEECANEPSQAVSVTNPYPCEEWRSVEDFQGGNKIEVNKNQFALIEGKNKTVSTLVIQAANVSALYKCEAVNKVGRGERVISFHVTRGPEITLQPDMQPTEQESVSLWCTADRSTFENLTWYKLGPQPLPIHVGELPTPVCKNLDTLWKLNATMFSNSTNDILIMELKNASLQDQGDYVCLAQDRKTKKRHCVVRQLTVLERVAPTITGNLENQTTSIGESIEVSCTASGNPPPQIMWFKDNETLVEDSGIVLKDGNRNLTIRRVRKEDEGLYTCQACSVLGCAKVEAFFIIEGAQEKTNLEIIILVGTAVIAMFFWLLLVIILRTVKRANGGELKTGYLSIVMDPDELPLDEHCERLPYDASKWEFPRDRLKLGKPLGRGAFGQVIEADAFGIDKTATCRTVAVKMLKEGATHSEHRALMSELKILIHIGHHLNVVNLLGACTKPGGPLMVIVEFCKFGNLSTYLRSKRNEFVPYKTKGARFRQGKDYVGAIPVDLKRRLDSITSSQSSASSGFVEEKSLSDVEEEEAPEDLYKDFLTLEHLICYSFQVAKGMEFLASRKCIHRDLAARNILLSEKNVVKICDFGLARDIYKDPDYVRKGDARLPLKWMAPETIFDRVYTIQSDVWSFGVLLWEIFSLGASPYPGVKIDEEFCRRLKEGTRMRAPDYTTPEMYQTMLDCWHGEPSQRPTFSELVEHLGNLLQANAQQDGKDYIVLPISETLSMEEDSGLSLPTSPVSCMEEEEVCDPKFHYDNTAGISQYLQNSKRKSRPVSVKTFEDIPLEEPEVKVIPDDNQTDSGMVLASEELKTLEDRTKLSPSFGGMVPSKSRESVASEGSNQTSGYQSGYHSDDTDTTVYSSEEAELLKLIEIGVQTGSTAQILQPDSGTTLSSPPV
c-KIT, sequence (P10721 26-976): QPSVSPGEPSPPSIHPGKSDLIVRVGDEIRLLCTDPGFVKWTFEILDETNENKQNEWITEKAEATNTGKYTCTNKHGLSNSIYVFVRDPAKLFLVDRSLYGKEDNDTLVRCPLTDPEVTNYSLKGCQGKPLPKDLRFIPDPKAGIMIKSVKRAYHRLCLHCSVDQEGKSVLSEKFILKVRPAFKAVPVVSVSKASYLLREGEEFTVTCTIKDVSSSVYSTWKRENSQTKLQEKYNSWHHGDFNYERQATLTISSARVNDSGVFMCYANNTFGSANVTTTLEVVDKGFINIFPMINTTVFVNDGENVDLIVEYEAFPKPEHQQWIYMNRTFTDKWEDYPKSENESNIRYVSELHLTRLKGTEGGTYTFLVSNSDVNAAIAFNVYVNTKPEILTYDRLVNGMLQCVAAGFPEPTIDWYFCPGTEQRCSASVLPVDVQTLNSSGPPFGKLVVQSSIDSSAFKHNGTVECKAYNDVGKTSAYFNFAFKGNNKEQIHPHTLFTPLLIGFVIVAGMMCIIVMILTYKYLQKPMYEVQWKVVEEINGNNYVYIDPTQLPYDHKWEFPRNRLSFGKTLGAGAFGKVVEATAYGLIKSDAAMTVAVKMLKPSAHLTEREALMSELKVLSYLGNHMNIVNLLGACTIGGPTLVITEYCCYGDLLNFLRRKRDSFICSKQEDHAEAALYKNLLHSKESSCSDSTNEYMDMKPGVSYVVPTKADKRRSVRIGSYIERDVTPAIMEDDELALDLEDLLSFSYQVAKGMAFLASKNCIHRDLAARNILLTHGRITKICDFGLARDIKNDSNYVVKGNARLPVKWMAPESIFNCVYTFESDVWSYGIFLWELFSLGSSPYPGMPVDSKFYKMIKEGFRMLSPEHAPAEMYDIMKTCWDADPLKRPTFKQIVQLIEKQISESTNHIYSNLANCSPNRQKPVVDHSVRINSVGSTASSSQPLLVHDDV
FYN isoform (a), sequence (P06241 whole entry, canonical isoform): as the sequence (P06241 whole entry) above

As for `Nc1ncnc2c1c(-c1ccc(Oc3ccccc3)cc1)nn2C[C@H]1SSC[C@H]1O` [46 B.], the IC50 fell in the range of 1000 to 10000 nM at RET; 1000 to 10000 nM at BRAF; 1000 to 10000 nM at c-KIT; 5 to 99 nM on HER4; 1000 to 10000 nM at KDR/VEGFR2; 1000 to 10000 nM at MEK5. The IC50 at FYN [1] was 5 to 99 nM.
With `Nc1ncnc2c1c(-c1ccc(Oc3ccccc3)cc1)nn2C[C@H]1SSC[C@@H]1O` [43 B.], the IC50 at FYN isoform (a) was in the range of 5 to 99 nM; on MEK5, 1000 to 10000 nM; on FYN isoform (b), 5 to 99 nM; at HCK, 100 to 999 nM; at LCK, 100 to 999 nM; at BLK it was 100 to 999 nM. Further, the results for the IC50 on SRC and at FYN [1] were 100 to 999 nM and 5 to 99 nM, respectively. Besides, the “% Inhibition Against SRC Family Kinases: CSK” value at CSK stood at 70%. Also, the “% Inhibition Against SRC Family Kinases: FYN” value on FYN [2] came out at 77%. For the same compound, the “% Inhibition Against SRC Family Kinases: LYN” value on LYN came to 57%.
Take `Nc1ncnc2c1c(-c1ccc(Oc3ccccc3)cc1)nn2C[C@@H]1SSC[C@H]1O` [43 A.]: the IC50 at FYN isoform (a) and on FYN isoform (b) was 5 to 99 nM each time.
In the case of `Nc1ncnc2c1c(-c1ccc(Oc3ccccc3)cc1)nn2C[C@@H]1SSC[C@@H]1O` [46 A.], the IC50 on RET was in the range of 100 to 999 nM; on BRAF, 1000 to 10000 nM; at c-KIT, 1000 to 10000 nM; at HER4, 1000 to 10000 nM; at KDR/VEGFR2, 1000 to 10000 nM.
